Tests used:
[1] = target: HK_1190 (Myxococcus xanthus, UniProt Q1DD24); conditions: excess ATP; kinase buffer pH 8.0, 10 mM MgCl2; labelled compound
[2] = target: HK_4262 (Myxococcus xanthus, UniProt Q1D4I6); conditions: excess ATP; kinase buffer pH 8.0, 10 mM MgCl2; labelled compound
Chain of HK_4262 (Q1D4I6 477-702): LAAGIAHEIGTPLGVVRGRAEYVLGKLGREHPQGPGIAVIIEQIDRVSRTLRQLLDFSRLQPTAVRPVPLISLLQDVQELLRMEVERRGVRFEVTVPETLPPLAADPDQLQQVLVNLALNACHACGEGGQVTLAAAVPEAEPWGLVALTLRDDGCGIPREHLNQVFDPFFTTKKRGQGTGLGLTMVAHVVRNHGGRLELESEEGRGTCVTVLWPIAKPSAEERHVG

Chain of HK_1190 (Q1DD24 205-424): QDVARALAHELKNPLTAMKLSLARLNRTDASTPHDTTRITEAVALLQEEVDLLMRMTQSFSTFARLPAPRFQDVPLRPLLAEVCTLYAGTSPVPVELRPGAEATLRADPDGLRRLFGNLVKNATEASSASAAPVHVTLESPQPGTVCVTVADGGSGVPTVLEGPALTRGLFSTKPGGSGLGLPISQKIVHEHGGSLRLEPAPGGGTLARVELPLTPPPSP

## Nc1ncnc2c1ncn2[C@@H]1O[C@H](COP(=O)(O)OP(=O)(O)OP(=O)(O)O)[C@@H](O)[C@H]1O [ATP]
[1]
  autophosphorylation, radiolabel gel assay: Both kinases were capable of autophosphorylation
[2]
  autophosphorylation, radiolabel gel assay: Both kinases were capable of autophosphorylation
